Test results: patent publication US10385019B2, “Inhibitors of EGFR and methods of use thereof” (Dana-Farber Cancer Institute, Inc., priority 2015, dated 2019)

These molecules were tested against EGFR T790M/L858R Ba/F3 cell line (Homo sapiens, UniProt P00533, T790M/L858R, cells depend on it) (assay: Ba/F3 cell proliferation model). Conditions: combined with cetuximab (% cetuximab, 1.0 μM drug concentration with 1.0 μg/mL cetuximab).
Assay type: cell-based, murine
Excerpt: The selectivity between wild-type EGFR and EGFR containing one or more mutations as described herein can also be measured using cellular proliferation assays where cell proliferation is dependent on kinase activity. For example, murine Ba/F3 cells transfected with a suitable version of wild-type EGFR (such as VIII; containing a WT EGFR kinase domain), or Ba/F3 cells transfected with L858R/T790M, Del/T790M/L718Q, L858R/T790M/L718Q, L858R/T790M/C797S, Del/T790M/C797S, L858R/T790M/I941R, or Exon 19 deletion/T790M can be used.
Cell lines are plated in media. The compounds of the present disclosure are then serially diluted and transferred to the cells. Cell viability is measured via a luminescent readout. Data is analyzed by non-linear regression curve-fitting. […]
The EGFR mutant L858R, Del E746_A750, L858R/T790M, DelE746_A750/T790M, L858R/T790M/C797S and Del/T790M/C797S Ba/F3 cells have been previously described (Zhou, W., Ercan, D., Chen, L., Yun, C. H., Li, D., Capelletti, M., Cortot, A. B., Chirieac, L., Iacob, R. E., Padera, R., et al. “Novel mutant-selective EGFR kinase inhibitors against EGFR T790M,” Nature 462, (2009), 1070-1074). All cell lines were maintained in RPMI 1640 (Cellgro; Mediatech Inc., Herndon, Calif.) supplemented with 10% FBS 100 units/mL penicillin, 100 units/mL streptomycin, and 2 mM glutamine. L858R cells were maintained in ACL-4 media (Invitrogen, Carlsbad, Calif.) supplemented with 5% FBS, 100 units/mL penicillin, 100 units/mL streptomycin, and 2 mM glutamine. The EGFR I941R mutation was introduced via site directed mutagenesis using the Quick Change Site-Directed Mutagenesis kit (Stratagene; La Jolla, Calif.) according to the manufacturer's instructions. All constructs were confirmed by DNA sequencing. The constructs were shuttled into the retroviral vector JP 1540 using the BD Creator™ System (BD Biosciences). Ba/F3 cells were infected with retrovirus and according to standard protocols, as described previously (Zhou et al, Nature 2009). Stable clones were obtained by selection in puromycin (2 μg/ml).
Growth and inhibition of growth was assessed by MTS assay and was performed according to previously established methods (Zhou et al., Nature 2009). The MTS assay is a colorimetric method for determining the number of viable cells that is based on the bioreduction of MTS by cells to a formazan product that is soluble in cell culture medium and can be detected spectrophotometrically. Ba/F3 cells of different EGFR genotypes were exposed to treatment for 72 hours and the number of cells used per experiment determined empirically and has been previously established (Zhou et al., Nature 2009). All experimental points were set up in six wells and all experiments were repeated at least three times. […] The curves were fitted using a non-linear regression model with a sigmoidal dose response.
Inhibition data of an EGFR T790M/L858R Ba/F3 cell line.

EGFR T790M/L858R Ba/F3 cell line, sequence (P00533 whole entry T790M/L858R): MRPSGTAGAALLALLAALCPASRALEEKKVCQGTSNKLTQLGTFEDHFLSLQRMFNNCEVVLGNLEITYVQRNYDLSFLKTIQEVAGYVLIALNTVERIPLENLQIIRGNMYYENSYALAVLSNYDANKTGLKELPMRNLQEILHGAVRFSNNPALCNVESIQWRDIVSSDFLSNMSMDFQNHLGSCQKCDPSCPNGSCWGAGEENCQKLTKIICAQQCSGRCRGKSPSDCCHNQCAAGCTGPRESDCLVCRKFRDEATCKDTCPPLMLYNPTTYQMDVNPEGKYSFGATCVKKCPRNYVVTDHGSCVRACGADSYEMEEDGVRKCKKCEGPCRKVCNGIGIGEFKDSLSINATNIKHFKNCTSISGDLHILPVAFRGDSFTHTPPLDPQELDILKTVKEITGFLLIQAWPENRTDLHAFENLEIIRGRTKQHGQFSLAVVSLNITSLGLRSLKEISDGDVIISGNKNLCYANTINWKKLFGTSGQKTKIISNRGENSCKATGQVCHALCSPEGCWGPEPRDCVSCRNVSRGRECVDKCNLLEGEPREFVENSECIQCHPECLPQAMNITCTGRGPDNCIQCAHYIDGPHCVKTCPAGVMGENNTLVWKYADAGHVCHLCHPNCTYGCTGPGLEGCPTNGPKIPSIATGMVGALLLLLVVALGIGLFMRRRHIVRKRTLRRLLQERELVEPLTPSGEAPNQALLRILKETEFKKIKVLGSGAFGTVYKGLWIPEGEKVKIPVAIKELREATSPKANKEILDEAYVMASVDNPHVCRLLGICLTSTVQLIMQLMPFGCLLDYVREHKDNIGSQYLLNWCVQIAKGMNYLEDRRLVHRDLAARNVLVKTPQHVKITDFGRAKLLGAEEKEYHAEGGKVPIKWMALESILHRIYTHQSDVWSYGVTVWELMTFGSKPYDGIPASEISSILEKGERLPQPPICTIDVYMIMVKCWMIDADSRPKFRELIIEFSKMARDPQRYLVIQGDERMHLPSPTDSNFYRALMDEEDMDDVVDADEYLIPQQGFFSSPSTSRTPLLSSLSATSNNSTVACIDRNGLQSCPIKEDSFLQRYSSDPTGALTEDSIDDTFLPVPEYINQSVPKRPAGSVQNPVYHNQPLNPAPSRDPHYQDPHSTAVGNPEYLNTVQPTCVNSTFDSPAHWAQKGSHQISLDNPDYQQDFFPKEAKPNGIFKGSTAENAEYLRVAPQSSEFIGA

Row | Structure (SMILES) | Activity (% inhibition)
1 | O=C(Nc1nccs1)[C@@H](c1ccccc1)N1Cc2ccc(-c3ccccn3)cc2C1=O [Compound I-108, (R)-2-(1-oxo-6-(pyridin-2-yl)isoindolin-2-yl)-2-phenyl-N-(thiazol-2-yl)acetamide] | C (a % inhibition of between about 25% to about 50%)
2 | O=C(NCCCN1CCOCC1)c1csc(NC(=O)[C@@H](c2ccccc2)N2Cc3ccccc3C2=O)n1 [Compound I-14, (R)-N-(3-morpholinopropyl)-2-(2-(1-oxoisoindolin-2-yl)-2-phenylacetamido)thiazole-4-carboxamide] | A (a % inhibition of about 75%)
3 | CCOC(=O)c1csc(NC(=O)[C@@H](c2ccccc2)N2Cc3ccccc3C2=O)n1 [Compound I-4, ethyl (R)-2-(2-(1-oxoisoindolin-2-yl)-2-phenylacetamido) thiazole-4-carboxylate] | A (a % inhibition of about 75%)
4 | O=C(NCCCN1CCOCC1)c1ccc(-c2ccc3c(c2)C(=O)N([C@@H](C(=O)Nc2nccs2)c2ccccc2)C3)cc1 [Compound I-84, (R)-N-(3-morpholinopropyl)-4-(3-oxo-2-(2-oxo-1-phenyl-2-(thiazol-2-ylamino)ethyl)isoindolin-5-yl)benzamide] | D (a % inhibition of between about 0% to about 25%)
5 | O=C(Nc1nccs1)[C@@H](c1ccccc1)N1Cc2ccc(-c3ccccc3)cc2C1=O [Compound I-59, (R)-2-(1-oxo-6-phenylisoindolin-2-yl)-2-phenyl-N-(thiazol-2-yl)acetamide] | C (a % inhibition of between about 25% to about 50%)
6 | CN(C)CCNC(=O)c1csc(NC(=O)[C@@H](c2ccccc2)N2Cc3ccccc3C2=O)n1 [Compound I-16, (R)-N-(2-(dimethylamino)ethyl)-2-(2-(1-oxoisoindolin-2-yl)-2-phenylacetamido)thiazole-4-carboxamide] | A (a % inhibition of about 75%)
7 | Cc1csc(NC(=O)[C@@H](c2ccccc2)N2Cc3ccccc3C2=O)n1 [Compound I-5, (R)-N-(4-methylthiazol-2-yl)-2-(1-oxoisoindolin-2-yl)-2-phenylacetamide] | A (a % inhibition of about 75%)
8 | O=C(Nc1nncs1)[C@@H](c1ccccc1)N1Cc2ccccc2C1=O [Compound I-41, (R)-2-(1-oxoisoindolin-2-yl)-2-phenyl-N-(1,3,4-thiadiazol-2-yl)acetamide] | A (a % inhibition of about 75%)
9 | O=C(Nc1nccs1)[C@@H](c1ccccc1)N1Cc2cc(-c3ccccc3)ccc2C1=O [Compound I-105, (R)-2-(1-oxo-5-phenylisoindolin-2-yl)-2-phenyl-N-(thiazol-2-yl)acetamide] | B (a % inhibition of between about 50% to about 75%)
10 | C[C@H](NC(=O)[C@H](c1ccccc1)N1Cc2ccccc2C1=O)c1ccccc1 [Compound I-2, (S)-2-(1-oxoisoindolin-2-yl)-2-phenyl-N-((S)-1-phenylethyl)acetamide] | A (a % inhibition of about 75%)
11 | O=C(Nc1nccs1)[C@@H](c1ccccc1)N1Cc2ccc(-c3cccc(C(=O)N4CCOCC4)c3)cc2C1=O [Compound I-92, (R)-2-(6-(3-(morpholine-4-carbonyl)phenyl)-1-oxoisoindolin-2-yl)-2-phenyl-N-(thiazol-2-yl)acetamide] | C (a % inhibition of between about 25% to about 50%)
12 | O=C(Nc1ncc[nH]1)[C@@H](c1ccccc1)N1Cc2ccccc2C1=O [Compound I-34, (R)-N-(1H-imidazol-2-yl)-2-(1-oxoisoindolin-2-yl)-2-phenylacetamide] | A (a % inhibition of about 75%)
13 | CN(C)C1CCN(C(=O)c2csc(NC(=O)[C@@H](c3ccccc3)N3Cc4ccccc4C3=O)n2)CC1 [Compound I-23, (R)-N-(4-(4-(dimethylamino)piperidine-1-carbonyl)thiazol-2-yl)-2-(1-oxoisoindolin-2-yl)-2-phenylacetamide] | A (a % inhibition of about 75%)
14 | O=C(Nc1nccs1)[C@@H](c1ccccc1)N1Cc2ccc(C3=CCCCC3)cc2C1=O [Compound I-86, (R)-2-(6-(cyclohex-1-en-1-yl)-1-oxoisoindolin-2-yl)-2-phenyl-N-(thiazol-2-yl)acetamide] | B (a % inhibition of between about 50% to about 75%)
15 | COC(=O)c1ccc(-c2ccc3c(c2)C(=O)N([C@@H](C(=O)Nc2nccs2)c2ccccc2)C3)cc1 [Compound I-72, methyl (R)-4-(3-oxo-2-(2-oxo-1-phenyl-2-(thiazol-2-ylamino)ethyl)isoindolin-5-yl)benzoate] | B (a % inhibition of between about 50% to about 75%)
16 | O=C(Nc1nccs1)[C@@H](c1ccccc1)N1Cc2ccc(-c3ccc4cc[nH]c4c3)cc2C1=O [Compound I-67, (R)-2-(6-(1H-indol-6-yl)-1-oxoisoindolin-2-yl)-2-phenyl-N-(thiazol-2-yl)acetamide] | C (a % inhibition of between about 25% to about 50%)
17 | O=C(Nc1nccs1)[C@@H](c1ccccc1)N1Cc2ccc(Nc3ccccc3)cc2C1=O [Compound I-98, (R)-2-(1-oxo-6-(phenylamino)isoindolin-2-yl)-2-phenyl-N-(thiazol-2-yl)acetamide] | C (a % inhibition of between about 25% to about 50%)

More lines, now with the values ahead:

Row | Activity (% inhibition) | Structure (SMILES)
18 | A (a % inhibition of about 75%) | C[C@H](C(=O)Nc1nccs1)N1Cc2ccc(-c3ccc(N4CCN(C(=O)OC(C)(C)C)CC4)cc3)cc2C1=O [Compound I-117, tert-butyl (R)-4-(4-(3-oxo-2-(1-oxo-1-(thiazol-2-ylamino)propan-2-yl)isoindolin-5-yl)phenyl)piperazine-1-carboxylate]
19 | A (a % inhibition of about 75%) | O=C(Nc1nc(Br)cs1)[C@@H](Cc1ccccc1)N1Cc2ccccc2C1=O [Compound I-50, (R)-N-(4-bromothiazol-2-yl)-2-(1-oxoisoindolin-2-yl)-3-phenylpropanamide]
20 | A (a % inhibition of about 75%) | O=C(Nc1nc(C(F)(F)F)cs1)[C@@H](c1ccccc1)N1Cc2ccc(-c3ccc4[nH]ccc4c3)cc2C1=O [Compound I-132, (R)-2-(6-(1H-indol-5-yl)-1-oxoisoindolin-2-yl)-2-phenyl-N-(4-(trifluoromethyl)thiazol-2-yl)acetamide]
21 | A (a % inhibition of about 75%) | O=C(Nc1nccs1)[C@@H](c1ccccc1)N1Cc2cc(Nc3ccccc3)ccc2C1=O [Compound I-93, (R)-2-(1-oxo-5-(phenylamino)isoindolin-2-yl)-2-phenyl-N-(thiazol-2-yl)acetamide]
22 | A (a % inhibition of about 75%) | C[C@H](C(=O)Nc1nccs1)N1Cc2ccc(-c3ccc4[nH]ccc4c3)cc2C1=O [Compound I-116, (R)-2-(6-(1H-indol-5-yl)-1-oxoisoindolin-2-yl)-N-(thiazol-2-yl)propanamide]
23 | A (a % inhibition of about 75%) | Cc1csc(NC(=O)[C@@H](c2ccccc2)N2Cc3ccc(-c4ccc5[nH]ccc5c4)cc3C2=O)n1 [Compound I-131, (R)-2-(6-(1H-indol-5-yl)-1-oxoisoindolin-2-yl)-N-(4-methylthiazol-2-yl)-2-phenylacetamide]
24 | A (a % inhibition of about 75%) | O=C(NCc1ccccc1)[C@@H](c1ccccc1)N1Cc2ccccc2C1=O [Compound I-87, (R)-N-benzyl-2-(1-oxoisoindolin-2-yl)-2-phenylacetamide]
25 | A (a % inhibition of about 75%) | O=C(Nc1nncs1)[C@@H](c1ccccc1)N1Cc2ccc(-c3ccc4[nH]ccc4c3)cc2C1=O [Compound I-127, (R)-2-(6-(1H-indol-5-yl)-1-oxoisoindolin-2-yl)-2-phenyl-N-(1,3,4-thiadiazol-2-yl)acetamide]
26 | A (a % inhibition of about 75%) | O=C(Nc1cncnc1)[C@@H](c1ccccc1)N1Cc2ccc(-c3ccc4[nH]ccc4c3)cc2C1=O [Compound I-134, (R)-2-(6-(1H-indol-5-yl)-1-oxoisoindolin-2-yl)-2-phenyl-N-(pyrimidin-5-yl)acetamide]
